# According to patent US7943586B2, “Antineoplastic agents targeted via glut transporters” (The Trustees of the University of Pennsylvania, priority 2003, dated 2011):
# Columns and labels:
# [1] = system: AR42J tumors (pancreatic acinar carcinoma); test: In vivo NIR phased array optical imaging of submerged AR42J tumors in nu/nu mice; design: species or system mouse; details: 3.5 hours after tail vein injection of 200 μL, tumor 1.5 cm deep
# Description: In vivo NIR optical imaging system: To image and localize subsurface fluorochrome labeled tumors, an NLR imaging system utilizing diffusion photons (Patterson, M. S.; Chance, B.; Wilson, B. C., Time resolved reflectance and transmittance for the non-invasive measurement of tissue optical properties. Applied Optics 1989, 28, 2331-2336.
# Fishkin, J. B.; Gratton, E., Propagation of photon-density waves in strongly scattering media containing an absorbing seni-infinite plane bounded by a straight edge. Journal of the Optical Society of America A 1993, 10, 127-140.) has been developed. The in vivo fluorescence optical imaging system consists of a pair of laser diodes operating at 780 nm. […]
# Intes, X.; Chen, Y.; Li, X. D.; Chance, B., Detection limit enhancement of fluorescent heterogeneities in turbid media by dual-interfering excitation. […] A 3-mm-in-diameter fiber bundle collects the fluorescence signal from the fluorophore taken by in the tumor. […] The fluorescence signal is then detected by the photomultiplier tube (PMT) and demodulated by the 50 MD receiver to obtain the amplitude and phase information. […] (Chen, Y.; Zheng, G.; Zhang, Z. H.; Blessington, D.; Zhang, M.; Li, H.; Iiu, Q.; Zhou, L.; Intes, X.; Achilefu, S.; Chance, B., Metabolism-enhanced tumor localization by fluorescence imaging: in vivo animal studies. Optics Letters 2003, 28, (21), 2070-2072). […]
# [2] = system: 9L glioma cells; test: Confocal microscopy of uptake and localization in 9L glioma cells, with or without D-glucose; type: cell-based, rat; details: for uptake / localization in 9L glioma cells / effect of D-glucose on uptake / localization in 9L glioma cells: 50 μM, 30 min, 37° C.; for effect of D-glucose on uptake / localization in 9L glioma cells: 50 mM D-glucose; for subcellular localization in 9L glioma cells: 100 μM Pyro-2DG with 10 μg/ml Rhodamine-123, 15 min post-incubation
# Description: Confocal Microscopic Studies: 9L glioma cells were grown for 5 days in 4-well Lab-Tek chamber slides (Naperville, Ill.). Before the cell experiments, the culture medium was replaced by preincubation medium (medium with 1% (w/v) BSA instead of FBS). The cells were washed three times with preincubation medium (for 15, 15, and 30 min), and cultured in this medium for a further 20 hours. Experiments were started, after two quick washes with preincubation medium, by the addition of preincubation medium containing the indicated amounts of Pyro-2DG and/or D-Glucose. After 30 minutes incubation at 37° C., the cells were washed five times with ice-cold PBS containing 0.8% BSA, two times with PBS alone, and fixed for 20 minutes with 2% formaldehyde in PBS at room temperature. Then the chamber slides were mounted and sealed for confocal microscopic analysis.
# 9L glioma cells, obtained from Department of Radiation Oncology at University of Pennsylvania, were cultured in Modified Eagle's Medium (NEM) supplemented with 15% newborn calf serum (NCS), 100 U/ml penicillin-streptomycin. Murine melanoma B16 cells, obtained from Dr. Theo van Berkel's laboratory at the University of Leiden, Netherlands, were cultured in Dulbeco's modified Eagle's medium (DMM) supplemented with 10% fetal bovine serum (FBS) and 100 U/n-d penicillin-streptomycin Cells were grown at 37° C. in an atmosphere of 5% CO2 in a humidified incubator. Cells were grown for 5 days in 4-well Lab-Tek chamber slides (Naperville, Ill.) before the experiment. Indicated amounts of NIRF-2DGs with or without D-Glucose and Rbodarninc-123 were incubated with 9L glioma cells/B16 melanoma cells at 37° C. for 30 min after 3 washes with Dulbecco's Phosphate Buffered Saline (D-PBS). After incubation, the cells were washed five times with ice-cold PBS and Fixed for 20 minutes with 2% formaldehyde in PBS at room temperature. Then the chamber slides were mounted and sealed for confocal niicroscopic analysis. Confocal aticroscopic images were obtained with TCS SPII laser scanning confocal microscope (LSCM) (Heidelber, Germany).
# [3] = Water solubility / miscibility of Pyro-2DG; type: physicochemical
# [4] = system: 9L glioma; type: in vivo, rat
# Description: Animals: Rat 9L glioma was implanted on the flanks of male Fisher 344 rats (150 -200 g) via subcutaneous injection of 0.1 mL, ˜10^6 9L glioma cells. Within ten days, tumors grew to the desired size of 1 cm in diameter.
# After not feeding animals for 24 hours, the rats were anaesthetized via intraperitoneal injection of Ketamine (75 mg/kg) and Xylazine (10 mg/kg). Pyro-2DG (2 mL, concentration: 0.25 mg/mL) was injected via tail vein infusion over a period of 1 hour (dose: 2.5 mg/kg). Thirty minutes later, the rats were anesthetized again and subjected to PDT.
# PDT Protocol: A “point treatment” protocol was designed for evaluating PDT response of Pyro-2DG. PDT was carried out using a KTP YAG pumped dye module (Laserscope, San Jose, Calif.) tuned to produce 670 nm light. Light delivery was through a 1 mm fiber to create a treatment spot of 0.96 mm in diameter when the fiber was held closely adjacent to the tumor. The light field was fixed in position at the center of the tumor by mounting the fiber in the center of a circular plate which was glued to the anesthetized animal. The light was delivered at a fluence rate of 75 mW/cm^2 to a total dose of 175 J/cm^2. Laser power output was measured with a power meter (Coherent, Auburn, Calif.).
# Fluorescence Imaging of Tumors (Quistorff, B., Haselgrove, J. C., and Chance, B. (1985) High spatial resolution readout of 3-D metabolic organ structure: an automated, low-temperature redox ratio-scanning instrument. Anal. Biochem. 148, 389-400; Gu, Y. Q., Qian, Z. Y., Chen, J. X., Blessington, D., Ramanujam, N., and Chance, B. (2002) High-resolution three-dimensional scanning optical image system for intrinsic and extrinsic contrast agents in tissue. Rev. Sci. Instruments 73, 172-178; Ramanujam, N., Richards-Kortum, R., Thomsen, S., Mahadevan-Jansen, A., Follen M., and Chance B. (2001) Low temperature fluorescence imaging of freeze-trapped human cervical tissues. Opt. Express 8, 335-343): Immediately after PDT, animals were immersed in pre-cooled isopentane (−150° C.) and transferred to liquid nitrogen (−196° C.) 5 minutes later. Tumors were then surgically excised, embedded in a mixture of ethanol-glycerol-water (freeze point: −30° C.), and mounted at low temperature for 3D surface fluorometric scanning. […] The fluorescence signal was automatically digitized and recorded on a PC. The redox ratio of FP/(FP+PN) was calculated with MATLAB.
# A “point treatment” protocol for evaluating PDT response of Pyro-2DG was designed. […] Based on the absorption and emission maxima of Pyro-2DG (λex=665 nm; λem=720 nm), the 9L tumor was treated with 670 nm laser light, and a 700 nm long pass filter was incorporated into the 3D fluorescence scanner for collecting the Pyro-2DG fluorescence at 720 nm. […]
# [5] = Biodistribution in organs of a normal Fisher 344 rat by Cryo-imager; type: in vivo; details: 1 hour after intravenous administration, preliminary
# Description: FIG. 9. Pyro-2DG uptake in different organs of a Fisher 344 rat after 1 h tail vein infusion of 2 ml of 2.5 mg/kg Pyro-2DG. Liver (top left), kidney (bottom left), spleen (bottom middle) and brain (bottom right). Images of the frozen liver and of the control liver (no Pyro-2DG), respectively, appear in the top middle and right hand panels.
# In order to determine the biodistribution of the Pyro-2DG, a normal Fisher 344 rat was sacrificed and different organs were scanned for Pyro-2DG fluorescence with Cryo-imager 1 hour after Pyro-2DG was intravenously administered.
# [6] = after PDT, 670 nm, 75 mW/cm^2, 175 J/cm^2
compound,measurement,setting,value
2-deoxyglucose conjugate of Bacteriopurpurin-18-N-3′-(isothiocyanate)-propylimide [BChlPP-2DG],enhancement of the tumor region,[1],enhanced
"CC1(C)C(/C=C/C=C/C=C/C=C2\N(CCCCS(=O)(=O)O)c3ccc4ccccc4c3C2(C)C)=[N+](CCCCS(=O)(=O)[O-])c2ccc3ccccc3c21 [ICG, Indocyanine Green, reference compound]",enhancement of the tumor region,[1],no significant enhancement
Pyropheophorbide-2-deoxyglucosamide [Pyro-2DG],uptake / localization in 9L glioma cells,[2],localizes within 9L glioma cells
same,effect of D-glucose on uptake / localization in 9L glioma cells,[2],competitively inhibited by D-glucose
same,subcellular localization in 9L glioma cells,[2],localize in mitochondria
same,miscibility with water,[3]; formulation with detergent (1% Tween 80),completely miscible with water
same,water solubility,[3]; without detergent,only partially water-soluble
same,NADH fluorescence of irradiated spot,[4]; [6],significant decrease
same,PP fluorescence of irradiated spot,[4]; [6],marked increase
same,redox ratio of the tumor FP/(FP+PN),"[4]; after PDT, irradiated region",dramatic increase
same,effect on mitochondrial activities (redox state) of the tumor,"[4]; rat, in vivo",no effect on the mitochondrial activities of the tumor
same,accumulation in liver,[5],accumulated predominantly in liver
same,accumulation in spleen and kidney,[5],lesser accumulation in spleen and kidney
same,crossing of the blood-brain barrier,[5],does not cross the blood-brain barrier
"Rhodamine 123 [Rhodamine-123, reference compound]",subcellular localization in 9L glioma cells,[2],localize in mitochondria
pyropheophorbide a [reference compound],uptake / localization in 9L glioma cells,[2],concentration dependent
same,effect of D-glucose on uptake / localization in 9L glioma cells,[2],not inhibited by D-glucose
